{"source": "patent US7868005B2", "about": "“Pyrazinyl substituted piperazine-piperidines with CXCR3 antagonist activity” (Schering Corporation, priority 2005, dated 2011)"}
{"molecular_target": "T1, human CXCR3 (N-delta 4) (Homo sapiens, UniProt P49682)", "T1 construct": "CD8 leader (N); Flag; expressed in transfected cells; membranes prepared", "T1 sequence (P49682 5-368 limits assumed)": "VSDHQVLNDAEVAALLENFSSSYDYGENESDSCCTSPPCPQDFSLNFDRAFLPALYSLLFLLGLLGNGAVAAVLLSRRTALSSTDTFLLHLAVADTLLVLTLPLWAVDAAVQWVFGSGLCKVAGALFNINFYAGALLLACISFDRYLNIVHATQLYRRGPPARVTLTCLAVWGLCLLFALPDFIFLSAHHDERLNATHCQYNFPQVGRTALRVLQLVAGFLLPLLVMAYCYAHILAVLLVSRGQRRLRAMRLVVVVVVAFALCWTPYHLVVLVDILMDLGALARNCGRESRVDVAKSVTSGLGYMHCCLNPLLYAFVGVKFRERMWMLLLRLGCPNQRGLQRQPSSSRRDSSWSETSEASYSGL", "assay": "Human CXCR3 (N-delta 4) Scintillation Proximity Assay (SPA), [125I] IP-10 binding to Ba/F3-hCXCR3 membranes", "settings": "IC50 rating, Table 1; read-out: IC50", "units": {"IC50": "nM"}}
{"smiles": "CC[C@H]1CN(c2ncc(C(=O)NC3CC3)nc2C)CCN1C1CCN(C(=O)c2ccc(F)cc2)CC1", "note": "[compound 447]", "IC50": "< 25"}
{"smiles": "CC[C@H]1CN(c2nc(N)c(C(=O)OC)nc2Cl)CCN1C1CCN(Cc2ccc(Cl)cc2CCNC(=O)OC(C)(C)C)CC1", "note": "[compound 296]", "IC50": "< 25"}
{"smiles": "CCNC(=O)NCCc1cc(Cl)ccc1CN1CCC(N2CCN(c3nc(N)c(C(N)=O)nc3Cl)C[C@@H]2CC)CC1", "note": "[compound 47]", "IC50": "> 100"}
{"smiles": "CC[C@H]1CN(c2nc(N)c(C(=O)NCC(N)=O)nc2Cl)CCN1C1CCN(Cc2ccc(Cl)cc2)CC1", "note": "[compound 213]", "IC50": "25 to 100"}
{"smiles": "CC[C@H]1CN(c2nc(N)c(C(N)=O)nc2Cl)CCN1C1(C)CCN(Cc2ccc(Cl)cc2C(N)=O)CC1", "note": "[compound 281]", "IC50": "> 100"}
{"smiles": "CC[C@H]1CN(c2nc(N)c(C(N)=O)nc2Cl)CCN1C1CCN(Cc2ccc(Cl)cc2C(N)=O)CC1", "note": "[compound 8]", "IC50": "< 25"}
{"smiles": "CC[C@H]1CN(c2nc(N)c(C(=O)NC)nc2Cl)CCN1C1CCN(C(=O)C2CCc3ccccc3C2)CC1", "note": "(some centres unmarked) [compound 370]", "IC50": "< 25"}
{"smiles": "CC[C@H]1CN(c2nc(N)c(C(=O)NC)nc2Cl)CCN1C1CCN(C(=O)c2ccc(-c3cnco3)cc2)CC1", "note": "[compound 354]", "IC50": "> 100"}
{"smiles": "CC[C@H]1CN(c2nc(N)c(C(=O)NCCO)nc2Cl)CCN1C1CCN(Cc2ccc(Cl)cc2C(=O)N2CCOCC2)CC1", "note": "[compound 197]", "IC50": "> 100"}
{"smiles": "CC[C@H]1CN(c2nc(N)c(C(=O)NC)nc2Cl)CCN1C1CCN(C(=O)C2(N)CCc3ccccc3C2)CC1", "note": "(some centres unmarked) [compound 369]", "IC50": "> 100"}
{"smiles": "CC[C@H]1CN(c2ncc(C(=O)NC3CC3)nc2C)CCN1C1CCN(Cc2ccc(F)cc2)CC1", "note": "[compound 440]", "IC50": "< 25"}
{"smiles": "CCNC(=O)NCCC(c1ccc(Cl)cc1)N1CCC(N2CCN(c3nc(N)c(C(=O)NCCO)nc3Cl)C[C@@H]2CC)CC1", "note": "(some centres unmarked) [compound 148]", "IC50": "< 25"}
{"smiles": "CC[C@H]1CN(c2nc(N)c(C(=O)NCCO)nc2Cl)CCN1C1CCN([C@@H](C(=O)OC)c2ccc(C#N)cc2)CC1", "note": "[compound 175]", "IC50": "< 25"}
{"smiles": "CC[C@H]1CN(c2nc(N)c(C(N)=O)nc2Cl)CCN1C1CCN([C@@H](C(=O)NC)c2ccc(Cl)cc2)CC1", "note": "[compound 50]", "IC50": "> 100"}
{"smiles": "CC[C@H]1CN(c2nc(N)c(C(=O)NCCO)nc2Cl)CCN1C1CCN([C@H](CO)c2ccc(Cl)cc2)CC1", "note": "[compound 128]", "IC50": "< 25"}
{"smiles": "CC[C@H]1CN(c2nc(N)c(C(=O)NC3CC3)nc2Cl)CCN1C1CCN(Cc2ccc(Cl)cc2C#N)CC1", "note": "[compound 88]", "IC50": "< 25"}
{"smiles": "CC[C@H]1CN(c2nc(N)c(C(=O)NCCO)nc2Cl)CCN1C1CCN(C(=O)c2ccc(CS(C)(=O)=O)cc2)CC1", "note": "[compound 430]", "IC50": "> 100"}
{"smiles": "CC[C@H]1CN(c2nc(N)c(C(N)=O)nc2Cl)CCN1C1CCN(Cc2ccc(Cl)cc2CC(=O)O)CC1", "note": "[compound 37]", "IC50": "25 to 100"}
{"smiles": "CC[C@H]1CN(c2nc(N)c(C(N)=O)nc2Cl)CCN1C1CCN(Cc2ccc(Cl)cc2CC(=O)NC)CC1", "note": "[compound 35]", "IC50": "25 to 100"}
{"smiles": "CC[C@H]1CN(c2nc(N)c(C(=O)NCCO)nc2Cl)CCN1C1CCN([C@H](C(=O)OC)c2ccc(Cl)cc2)CC1", "note": "[compound 192]", "IC50": "> 100"}
{"smiles": "CC[C@H]1CN(c2nc(N)c(C(N)=O)nc2Cl)CCN1C1CCN(Cc2ccc(Cl)cc2CCNC(=O)OC(C)(C)C)CC1", "note": "[compound 13]", "IC50": "< 25"}
{"smiles": "CC[C@H]1CN(c2nc(N)c(C(=O)NCCNS(N)(=O)=O)nc2Cl)CCN1C1CCN(Cc2ccc(Cl)cc2)CC1", "note": "[compound 264]", "IC50": "< 25"}
{"smiles": "CC[C@H]1CN(c2nc(N)c(C(=O)NCCCN3CCCC3=O)nc2Cl)CCN1C1CCN(Cc2ccc(C#N)cc2)CC1", "note": "[compound 276]", "IC50": "> 100"}
{"smiles": "CC[C@H]1CN(c2nc(N)c(C(=O)NC)nc2Cl)CCN1C1CCN(C(=O)C2Cc3ccccc3C2)CC1", "note": "[compound 368]", "IC50": "> 100"}
{"smiles": "CC[C@H]1CN(c2nc(N)c(C(N)=O)nc2Cl)CCN1C1CCN([C@@H](C(=O)NC2CC2)c2ccc(Cl)cc2)CC1", "note": "[compound 45]", "IC50": "> 100"}
{"smiles": "CC[C@H]1CN(c2ncc(C(=O)NC3CC3)nc2C(F)(F)F)CCN1C1CCN(C(=O)c2ccc(F)c(F)c2)CC1", "note": "[compound 490]", "IC50": "< 25"}
